Measured values as given in patent publication US20100041089A1, “IMPROVED METHOD FOR DETECTING CHEMICAL […]” (priority 2006, published 2010).

System: yeast genes (expressed mRNA)
Experiment: DNA chip measurement of expressed mRNA of yeast genes after culture with a toxic chemical substance
Format: cell-based, Saccharomyces cerevisiae S288C
Procedure: Yeast (Saccharomyces cerevisiae S288C (a SUC2mal mel gap2 CUP1)) were cultured at 25° C. on YPD medium (yeast extract 1%, polypeptone 2%, glucose 2%). One of toxic chemical substances was added to the cell at logarithmic growth phase, and the cell was further cultured for two hours. Cell was cultured without any chemical substance in the same condition, and was used as a control. Concentrations of the chemical substances were defined to inhibit the growth of the yeast but not lead to death.
After the completion of cultivation, the culture was centrifuged to collect the cells. To the cells, sodium acetate buffer (50 mM sodium acetate, 10 mM EDTA, 1% SDS) was added, and the mixture was shaken at 65° C. for five minutes, followed by returning to room temperature, and obtaining the supernatant, which procedure was repeated two times. To the supernatant, ½ amount of a solution of phenol/chloroform (1:1) was added, and the mixture was centrifuged to give a supernatant, an equal amount of chloroform was added, and the mixture was centrifuged to give a supernatant. To the supernatant, an equal amount of isopropanol containing 0.3 M sodium acetate was added, and the mixture was allowed to stand at room temperature for 30 minutes, after which the mixture was centrifuged to give sediment of the whole RNAs. Seventy % ethanol was added to the sediment, and the mixture was again centrifuged to give sediment, which was then dried and dissolved in water. mRNA was isolated from the whole RNAs as followings. In view of the fact that a poly A chain is attached to the 3′ terminus of mRNA, a polynucleotide having a poly T structure which was immobilized on the surface of latex beads was used to trap the mRNA, and then the mRNA was washed and eluted with spine column (Oligotex-dT30<Super>mRNA Purification Kit, Takara). Reverse transcription of the mRNA was conducted with a reverse transcriptase (Super Script II Reverse Transcriptase; catalogue No. 18064-014, GibcoBRL) using fluorescence-labeled nucleotides to give cDNAs that were introduced with Cy3-dUTP or Cy5-dUTP during the reverse transcription.
The labeled cDNAs were dissolved in TE buffer (10 mM Tris-HCl/1 mM EDTA, pH 8.0), and the solution was dropped on the DNA chip containing the whole genes of yeast (DNA Chip Research Inc. Japan) so that the cDNAs were hybridized on the DNA chip at 65° C. for over 12 hours. The fluoresces intensity of the DNA chip was read with a scanner, and the ratio relative to the fluorescence intensity resulting from the absence of chemical substance was estimated as the following, which is shown in Tables 1 to 9.
In the Tables, “Intensity” indicated in the rightmost column is a value of the level of expressed mRNA of each gene in control cells as divided by the average level of the expressions of the whole genes. A gene of which mRNA level is lower in control, and is higher in cases of addition of chemical substance, is especially useful in the detection of toxic substances.
Here, when a ratio of an amount of mRNA expressed in the presence of the chemical substance to an amount of mRNA expressed in the absence of the chemical substance is two or more, then it is considered significant.

Oc1cc(Cl)c(Cl)cc1Cl [(6), 2,4,5-Trichlorophenol]
The level of expressed mRNA in the presence of chemical substance/The level of expressed mRNA in the absence of chemical substance (yeast gene YNL092W, cultured two hours with substance): 1.2 | The level of expressed mRNA in the presence of chemical substance/The level of expressed mRNA in the absence of chemical substance (yeast gene YNL115C, cultured two hours with substance): 9.1 | The level of expressed mRNA in the presence of chemical substance/The level of expressed mRNA in the absence of chemical substance (yeast gene YNL156C, cultured two hours with substance): 1.3 | The level of expressed mRNA in the presence of chemical substance/The level of expressed mRNA in the absence of chemical substance (yeast gene YNL160W (stress protein genes)): 5.8 | The level of expressed mRNA in the presence of chemical substance/The level of expressed mRNA in the absence of chemical substance (yeast gene YNL190W, cultured two hours with substance): 0.5 | The level of expressed mRNA in the presence of chemical substance/The level of expressed mRNA in the absence of chemical substance (yeast gene YNL208W, cultured two hours with substance): 1.4 | The level of expressed mRNA in the presence of chemical substance/The level of expressed mRNA in the absence of chemical substance (yeast gene YNL234W, cultured two hours with substance): 1.3 | The level of expressed mRNA in the presence of chemical substance/The level of expressed mRNA in the absence of chemical substance (yeast gene YNL281W, cultured two hours with substance): 0.9 | The level of expressed mRNA in the presence of chemical substance/The level of expressed mRNA in the absence of chemical substance (yeast gene YNL300W, cultured two hours with substance): 0.4 | The level of expressed mRNA in the presence of chemical substance/The level of expressed mRNA in the absence of chemical substance (yeast gene YNL305C, cultured two hours with substance): 1.1 | The level of expressed mRNA in the presence of chemical substance/The level of expressed mRNA in the absence of chemical substance (yeast gene YNR064C, cultured two hours with substance): 2.1 | The level of expressed mRNA in the presence of chemical substance/The level of expressed mRNA in the absence of chemical substance (yeast gene YNR068C, cultured two hours with substance): 0.4 | The level of expressed mRNA in the presence of chemical substance/The level of expressed mRNA in the absence of chemical substance (yeast gene YOL032W, cultured two hours with substance): 2.1 | The level of expressed mRNA in the presence of chemical substance/The level of expressed mRNA in the absence of chemical substance (yeast gene YOL036W, cultured two hours with substance): 1.2 | The level of expressed mRNA in the presence of chemical substance/The level of expressed mRNA in the absence of chemical substance (yeast gene YOL047C, cultured two hours with substance): 1.5 | The level of expressed mRNA in the presence of chemical substance/The level of expressed mRNA in the absence of chemical substance (yeast gene YOL071W, cultured two hours with substance): 1.7 | The level of expressed mRNA in the presence of chemical substance/The level of expressed mRNA in the absence of chemical substance (yeast gene YOL082W, cultured two hours with substance): 1.8 | The level of expressed mRNA in the presence of chemical substance/The level of expressed mRNA in the absence of chemical substance (yeast gene YOL083W, cultured two hours with substance): 4.5 | The level of expressed mRNA in the presence of chemical substance/The level of expressed mRNA in the absence of chemical substance (yeast gene YOL117W, cultured two hours with substance): 2.0 | The level of expressed mRNA in the presence of chemical substance/The level of expressed mRNA in the absence of chemical substance (yeast gene YOL131W, cultured two hours with substance): 1.1 | The level of expressed mRNA in the presence of chemical substance/The level of expressed mRNA in the absence of chemical substance (yeast gene YOL150C, cultured two hours with substance): 5.2 | The level of expressed mRNA in the presence of chemical substance/The level of expressed mRNA in the absence of chemical substance (yeast gene YOL162W, cultured two hours with substance): 1.2 | The level of expressed mRNA in the presence of chemical substance/The level of expressed mRNA in the absence of chemical substance (yeast gene YOR019W, cultured two hours with substance): 1.3 | The level of expressed mRNA in the presence of chemical substance/The level of expressed mRNA in the absence of chemical substance (yeast gene YOR197W, cultured two hours with substance): 1.3 | The level of expressed mRNA in the presence of chemical substance/The level of expressed mRNA in the absence of chemical substance (yeast gene YOR248W, cultured two hours with substance): 0.2 | The level of expressed mRNA in the presence of chemical substance/The level of expressed mRNA in the absence of chemical substance (yeast gene YOR255W, cultured two hours with substance): 0.5 | The level of expressed mRNA in the presence of chemical substance/The level of expressed mRNA in the absence of chemical substance (yeast gene YOR382W, cultured two hours with substance): 13.1 | The level of expressed mRNA in the presence of chemical substance/The level of expressed mRNA in the absence of chemical substance (yeast gene YOR383C): 6.8 | The level of expressed mRNA in the presence of chemical substance/The level of expressed mRNA in the absence of chemical substance (yeast gene YPL052W, cultured two hours with substance): 1.9 | The level of expressed mRNA in the presence of chemical substance/The level of expressed mRNA in the absence of chemical substance (yeast gene YPL087W, cultured two hours with substance): 4.3 | The level of expressed mRNA in the presence of chemical substance/The level of expressed mRNA in the absence of chemical substance (yeast gene YPL196W, cultured two hours with substance): 2.0 | The level of expressed mRNA in the presence of chemical substance/The level of expressed mRNA in the absence of chemical substance (yeast gene YPL206C, cultured two hours with substance): 1.8 | The level of expressed mRNA in the presence of chemical substance/The level of expressed mRNA in the absence of chemical substance (yeast gene YPL222W, cultured two hours with substance): 2.2 | The level of expressed mRNA in the presence of chemical substance/The level of expressed mRNA in the absence of chemical substance (yeast gene YPR023C, cultured two hours with substance): 1.4 | The level of expressed mRNA in the presence of chemical substance/The level of expressed mRNA in the absence of chemical substance (yeast gene YPR079W, cultured two hours with substance): 1.0 | The level of expressed mRNA in the presence of chemical substance/The level of expressed mRNA in the absence of chemical substance (yeast gene YPR151C, cultured two hours with substance): 1.6
